The source of these data is patent US12024510B2, “Pyrazolopyridine-diamides, their use as insecticide and processes for preparing the same” (PI INDUSTRIES LTD., priority 2017, dated 2024).

What all share (assay type): in vivo
Assay [1] has as its system Spodoptera litura. Put plainly: Spodoptera litura diet incorporation method. To be noted: third instar larvae, dead and moribund combined, 96 h after release. On the procedure:
(§1) Test Solutions were Prepared According to the Procedure Described Herein Below (500 PPM):
(§2) • 1. Eppendorf Vortex mixer (ThermoMixer C) and 1.5 mL Eppendorf tubes • 2. Zirconia (Zirconium-Yttrium) beads having diameter of 0.8 to 1.0 mm • 3. Microscope • 4. Beaker 100 mL • 5. Micro-pipette Reagents: • 1. Surfactant Solution • 2. De-mineralized (DM) Water • 1. Weigh 10 mg of the compound of the present invention to be tested in an Eppendorf Tube. • 2. Add 200 mg of the Surfactant Solution into the tube. • 3. Add 600 mg of Zirconia beads into the above mixture. • 4. Fix the tube in Eppendorf Vortex mixer and start vortexing at 2000 rpm. • 5. Mix on Vortex mixer for 30 minutes. After 30 minutes, observe the sample over a microscope at 400× resolution. • 6. If the Maximum particle size is more than 5 μm or average particle size is more than 2 μm or the particle size distribution is uneven, continue vortexing for another 30 minutes and again check the particle size using the microscope. Continue till the average particle size is below 2 microns. • 7. When the required particle size is achieved, add 1.0 mL DM water into the tube, close the cap, shake the tube thoroughly and transfer the contents, along with the beads, into a beaker. • 8. To rinse the tube, add another 1.0 mL of DM water into the tube, close the cap, shake well and transfer this into the same beaker. • 9. Repeat Step no. 8 one more time so that the tube is rinsed well and the compound of the present invention to be tested is transferred to the beaker. • 10. Add 16.8 mL of DM water into the beaker and stir well. • 11. The homogeneous dispersion can then be decanted into a glass vial, immediately, to separate the Zirconia beads. • 12. Immediately use this sample for biological testing. • 13. Further dilutions can be prepared by taking appropriate quantity of the aliquot of Step 10, immediately after stirring, and diluting as per requirement. The sample solution must be well mixed just before biological testing.
(§3) Diet incorporation method was used, in which semi-synthetic diet was incorporated into the test solution when the temperature is approximately 50° C. in the bioassay containers and stirred thoroughly for properly mixing and then was allowed to cool for 30 min. The solidified diet was cut into equal pieces, and then each piece was transferred in one cell in Bio-assay trays. A single third instar starved larva was released into each of these cells of bioassay trays and the tray was covered with the lid. The bio-assay trays were kept under laboratory conditions at a temperature of 25° C. and Relative Humidity of 70%. Observations on dead, moribund and live larvae were recorded at 96 h after the release of larvae. Percent mortality was calculated by combining dead and moribund larvae. The following compound numbers

Assay [2] concerns Plutella xylostella. The experiment in a line: whole plant or invertebrate. As to conditions: foliar, cabbage leaf dip, second instar larvae, dead and moribund combined, 72 h after release. On the procedure: as §1, §2
Leaf dip method was used for screening, wherein the required quantity of the compounds were weighed and dissolved in the test solution into the tube and vortex at 2000 rpm with Zirconia beads for 90 min for proper mixing, then mixed with 0.01% Triton-X solution to get the desired test concentration. Cabbage leaves were dipped in the solution for 10 seconds, shade dried for 20 min and then transferred to bioassay trays. Single second instar larva was released into each cell and the tray was covered with lid. The bio-assay trays were kept under laboratory conditions at a temperature of 25° C. and relative humidity of 70%. Observations on dead, moribund and live larvae were recorded at 72 h after the release. Percent mortality was calculated by combining dead and moribund larvae. The following compound num.

Assay [3] deals with Helicoverpa armigera. The experiment in a line: Helicoverpa armigera diet incorporation method. As to conditions: third instar larvae, dead and moribund combined, 96 h after release. As to the method: as §1, §2
as §3, with “which and” for “which”

By mortality is commonly meant the share of the test organisms that died. As to `Cc1cc2ccnn2c(C(=O)NC2CSC2)c1NC(=O)c1cc(Br)nn1-c1ncccc1Cl` [Compound 207, 6-(3-bromo-1-(3-chloropyridin-2-yl)-1H-pyrazole-5-carboxamido)-5-methyl-N-(thietan-3-yl)pyrazolo[1,5-a]pyridine-7-carboxamide], the mortality at 300 ppm in assay [1] and in assay [2] was more than 70% in each case.

As to `Cc1cc2ccnn2c(C(=O)NC2CC2)c1NC(=O)c1cc(OC2CSC2)nn1-c1ncccc1Cl` [Compound 145, 6-(1-(3-chloropyridin-2-yl)-3-(thietan-3-yloxy)-1H-pyrazole-5-carboxamido)-N-cyclopropyl-5-methylpyrazolo[1,5-a]pyridine-7-carboxamide], in assay [1], the mortality at 300 ppm was more than 70%.

Take `CCNC(=O)c1c(NC(=O)c2cc(N3CC(F)(F)C3)nn2-c2ncccc2Cl)c(C)cc2ccnn12` [Compound 83, 6-(1-(3-chloropyridin-2-yl)-3-(3,3-difluoroazetidin-1-yl)-1H-pyrazole-5-carboxamido)-N-ethyl-5-methylpyrazolo[1,5-a]pyridine-7-carboxamide]: the mortality at 300 ppm in assay [1] is more than 70%.

Turning to `CCC(C)CNC(=O)c1c(NC(=O)c2cc(OC)nn2-c2ncccc2Cl)c(C)cc2ccnn12` (stereo not shown) [Compound 199, 6-(1-(3-chloropyridin-2-yl)-3-methoxy-1H-pyrazole-5-carboxamido)-5-methyl-N-(2-methylbutyl)pyrazolo[1,5-a]pyridine-7-carboxamide], the mortality at 300 ppm in assay [3] and in assay [2] was more than 70% in each case.

For the molecule `COc1cc(C(=O)Nc2c(C)cc3ccnn3c2C(=O)NC(C)C(F)(F)F)n(-c2ncccc2Cl)n1` (stereo not shown) [Compound 217, 6-(1-(3-chloropyridin-2-yl)-3-methoxy-1H-pyrazole-5-carboxamido)-5-methyl-N-(1,1,1-trifluoropropan-2-yl)pyrazolo[1,5-a]pyridine-7-carboxamide], the mortality at 300 ppm in assay [1] was more than 70%.

`Cc1cc2ccnn2c(C(=O)NCCC(C)C)c1NC(=O)c1cc(Br)nn1-c1ncccc1Cl` [Compound 206, 6-(3-bromo-1-(3-chloropyridin-2-yl)-1H-pyrazole-5-carboxamido)-N-isopentyl-5-methylpyrazolo[1,5-a]pyridine-7-carboxamide]: the mortality at 300 ppm in assay [1] was more than 70%.

As to `Cc1cc2ccnn2c(C(=O)NC2C[S+]([O-])C2)c1NC(=O)c1cc(Br)nn1-c1ncccc1Cl` (stereo not shown) [Compound 209, 6-(3-bromo-1-(3-chloropyridin-2-yl)-1H-pyrazole-5-carboxamido)-5-methyl-N-(1-oxidothietan-3-yl)pyrazolo[1,5-a]pyridine-7-carboxamide], the mortality at 300 ppm in assay [3] and in assay [2] was more than 70% throughout.

In the case of `COc1cc(C(=O)Nc2c(Cl)cc3ccnn3c2C(=O)NCC2CC2)n(-c2ncccc2Cl)n1` [Compound 131, 5-chloro-6-(1-(3-chloropyridin-2-yl)-3-methoxy-1H-pyrazole-5-carboxamido)-N-(cyclopropylmethyl)pyrazolo[1,5-a]pyridine-7-carboxamide], the mortality at 300 ppm in assay [3] and in assay [2] was more than 70% throughout.

In the case of `CONC(=O)c1c(NC(=O)c2cc(N3CC(F)(F)C3)nn2-c2ncccc2Cl)c(C)cc2ccnn12` [Compound 84, 6-(1-(3-chloropyridin-2-yl)-3-(3,3-difluoroazetidin-1-yl)-1H-pyrazole-5-carboxamido)-N-methoxy-5-methylpyrazolo[1,5-a]pyridine-7-carboxamide], the mortality at 300 ppm in assay [3] and in assay [2] was more than 70% each time.

In the case of `Cc1cc2ccnn2c(C(=O)NCC2CC2)c1NC(=O)c1cc(Cn2nnc(C(F)(F)F)n2)nn1-c1ncccc1Cl` [Compound 171, 6-(1-(3-chloropyridin-2-yl)-3-((5-(trifluoromethyl)-2H-tetrazol-2-yl)methyl)-1H-pyrazole-5-carboxamido)-N-(cyclopropylmethyl)-5-methylpyrazolo[1,5-a]pyridine-7-carboxamide], the mortality at 300 ppm in assay [3] and in assay [2] was more than 70% throughout.

Take `CCNC(=O)c1c(NC(=O)c2cc(C(F)(F)F)nn2-c2ncccc2Cl)c(Br)cc2ccnn12` [Compound 127, 5-bromo-6-(1-(3-chloropyridin-2-yl)-3-(trifluoromethyl)-1H-pyrazole-5-carboxamido)-N-ethylpyrazolo[1,5-a]pyridine-7-carboxamide]: the mortality at 300 ppm in assay [3] and in assay [2] was more than 70% in each case.

Turning to `C=CCNC(=O)c1c(NC(=O)c2cc(N3CC(F)(F)C3)nn2-c2ncccc2Cl)c(C)cc2ccnn12` [Compound 86, N-allyl-6-(1-(3-chloropyridin-2-yl)-3-(3,3-difluoroazetidin-1-yl)-1H-pyrazole-5-carboxamido)-5-methylpyrazolo[1,5-a]pyridine-7-carboxamide], in assay [1], the mortality at 300 ppm is more than 70%.

For the molecule `COc1cc(C(=O)Nc2c(Br)cc3ccnn3c2C(=O)NC(C)C)n(-c2ncccc2Cl)n1` [Compound 130, 5-bromo-6-(1-(3-chloropyridin-2-yl)-3-methoxy-1H-pyrazole-5-carboxamido)-N-isopropylpyrazolo[1,5-a]pyridine-7-carboxamide], the mortality at 300 ppm in assay [3] and in assay [2] was more than 70% in each case.

For the molecule `CCONC(=O)c1c(NC(=O)c2cc(OCC(F)(F)F)nn2-c2ncccc2Cl)c(C)cc2ccnn12` [Compound 115, 6-(1-(3-chloropyridin-2-yl)-3-(2,2,2-trifluoroethoxy)-1H-pyrazole-5-carboxamido)-N-ethoxy-5-methylpyrazolo[1,5-a]pyridine-7-carboxamide], the mortality at 300 ppm in assay [3] and in assay [2] was more than 70% in each case.

With `Cc1cc2ccnn2c(C(=O)NCC(F)(F)F)c1NC(=O)c1cc(OCC(F)(F)F)nn1-c1ncccc1Cl` [Compound 114, 6-(1-(3-chloropyridin-2-yl)-3-(2,2,2-trifluoroethoxy)-1H-pyrazole-5-carboxamido)-5-methyl-N-(2,2,2-trifluoroethyl)pyrazolo[1,5-a]pyridine-7-carboxamide], the mortality at 300 ppm in assay [3] and in assay [2] was more than 70% each time.

For the molecule `Cc1cc2ccnn2c(C(=O)NC2(C)COC2)c1NC(=O)c1cc(Br)nn1-c1ncccc1Cl` [Compound 173, 6-(3-bromo-1-(3-chloropyridin-2-yl)-1H-pyrazole-5-carboxamido)-5-methyl-N-(3-methyloxetan-3-yl)pyrazolo[1,5-a]pyridine-7-carboxamide], the mortality at 300 ppm in assay [3] and in assay [2] was more than 70% each time.

`Cc1cc2ccnn2c(C(=O)NC(C)C(F)(F)F)c1NC(=O)c1cc(C(F)(F)F)nn1-c1ncccc1Cl` (stereo not shown) [Compound 220, 6-(1-(3-chloropyridin-2-yl)-3-(trifluoromethyl)-1H-pyrazole-5-carboxamido)-5-methyl-N-(1,1,1-trifluoropropan-2-yl)pyrazolo[1,5-a]pyridine-7-carboxamide]: the mortality at 300 ppm in assay [1] is more than 70%.

Regarding `COc1cc(C(=O)Nc2c(C)cc3ccnn3c2C(=O)NC2(C)CC2)n(-c2ncccc2Cl)n1` [Compound 219, 6-(1-(3-chloropyridin-2-yl)-3-methoxy-1H-pyrazole-5-carboxamido)-5-methyl-N-(1-methylcyclopropyl)pyrazolo[1,5-a]pyridine-7-carboxamide], the mortality at 300 ppm in assay [1] was more than 70%.

For the molecule `Cc1cc2ccnn2c(C(=O)NCC#N)c1NC(=O)c1cc(C(F)(F)F)nn1-c1ncccc1Cl` [Compound 117, 6-(1-(3-chloropyridin-2-yl)-3-(trifluoromethyl)-1H-pyrazole-5-carboxamido)-N-(cyanomethyl)-5-methylpyrazolo[1,5-a]pyridine-7-carboxamide], the mortality at 300 ppm in assay [3] and in assay [2] was more than 70% each time.
